Measurements reported in ChEMBL document CHEMBL4330117, “Synthesis, biological evaluation and molecular docking of benzimidazole grafted benzsulfamide-containing pyrazole ring derivatives as novel tubulin polymerization inhibitors” (Bioorg Med Chem, 2019).
The source made the active and inactive calls. No cut-off for these calls is given here.

Legend:
Rattus norvegicus = experiment: Antitumor activity against rat hepatoma H22 cells implanted in mouse assessed as reduction in tumor volume at 3 mg/kg, ip measured after 8 to 28 days; format: functional, organism-based
[1] = Cytotoxicity against HEK293T cells after 24 hrs by MTT assay; format: cell-based, HEK-293T; details: human
HeLa = experiment: Antiproliferative activity against human HeLa cells after 24 hrs by MTT assay; format: functional, cell-based
MCF7 = experiment: Antiproliferative activity against human MCF7 cells after 24 hrs by MTT assay; format: functional, cell-based; details: MCF7, 24 h
[2] = Toxicity in mouse xenografted with rat H22 cells assessed as weight loss at 3 mg/kg, ip measured after 28 days; format: organism-based; details: in vivo, 672 h
A549 [3] = experiment: Antiproliferative activity against human A549 cells after 24 hrs by MTT assay; format: functional, cell-based; details: A549, 24 h
[4] = Cytotoxicity against mouse primary hepatocytes after 24 hrs by MTT assay; format: cell-based, Hepatocyte
HepG2 = experiment: Antiproliferative activity against human HepG2 cells after 24 hrs by MTT assay; format: functional, cell-based; details: HepG2, 24 h
A549 [5] = experiment: Cell cycle arrest in human A549 cells assessed as accumulation at G2/M phase at 0.5 uM after 24 hrs by propidium iodide/RNase A staining-based flow cytometric analysis (reference value: 17.62%); format: functional
Tubulin (Homo sapiens) [6] = biological target: T1, Tubulin (Homo sapiens) (UniProt P68371+Q9H4B7+P0DPH7+P68366+Q13509+Q71U36+P04350+Q3ZCM7+P07437+P68363+Q9BQE3+Q6PEY2+Q13885+Q9BVA1+Q9BUF5); experiment: Induction of microtubule disruption in human A549 cells assessed as cell contraction at 0.2 uM after 24 hrs by rhodamine and DAPI staining based immunofluorescence microscopic analysis
A549 [7] = experiment: Induction of apoptosis in human A549 cells assessed as viable cells at 0.5 uM after 24 hrs by Annexin V-FITC/propidium iodide staining-based flow cytometric analysis (reference value: 82.8%); format: functional; details: A549, 24 h, read-out: Activity
A549 [8] = experiment: Induction of apoptosis in human A549 cells assessed as necrotic cells at 0.1 uM after 24 hrs by Annexin V-FITC/propidium iodide staining-based flow cytometric analysis (reference value: 10.8%); format: functional
A549 [9] = experiment: Induction of apoptosis in human A549 cells assessed as upregulation of Bax level up to 0.5 uM after 24 hrs by Western blot analysis; format: functional, cell-based
A549 [10] = experiment: Cell cycle arrest in human A549 cells assessed as accumulation at G2/M phase at 0.3 uM after 24 hrs by propidium iodide/RNase A staining-based flow cytometric analysis (reference value: 17.62%); format: functional
A549 [11] = experiment: Induction of apoptosis in human A549 cells assessed as early apoptotic cells at 0.5 uM after 24 hrs by Annexin V-FITC/propidium iodide staining-based flow cytometric analysis (reference value: 2.81%); format: functional
A549 [12] = experiment: Cell cycle arrest in human A549 cells assessed as accumulation at G1 phase at 0.5 uM after 24 hrs by propidium iodide/RNase A staining-based flow cytometric analysis (reference value: 71.02%); format: functional
A549 [13] = experiment: Cell cycle arrest in human A549 cells assessed as upregulation of cyclin B1 expression level after 24 hrs by Western blot analysis; format: functional, cell-based
A549 [14] = experiment: Cell cycle arrest in human A549 cells assessed as accumulation at S phase at 0.5 uM after 24 hrs by propidium iodide/RNase A staining-based flow cytometric analysis (reference value: 11.36%); format: functional
A549 [15] = experiment: Induction of apoptosis in human A549 cells assessed as upregulation of cleaved PARP level up to 0.5 uM after 24 hrs by Western blot analysis; format: functional, cell-based
A549 [16] = experiment: Induction of apoptosis in human A549 cells assessed as early apoptotic cells at 0.1 uM after 24 hrs by Annexin V-FITC/propidium iodide staining-based flow cytometric analysis (reference value: 2.81%); format: functional
A549 [17] = experiment: Cell cycle arrest in human A549 cells assessed as accumulation at G2/M phase after 24 hrs by propidium iodide/RNase A staining-based flow cytometric analysis; format: functional
Tubulin (Homo sapiens) [18] = biological target: T1, Tubulin (Homo sapiens); experiment: Induction of microtubule disruption in human A549 cells assessed as cell rounding at 0.2 uM after 24 hrs by rhodamine and DAPI staining based immunofluorescence microscopic analysis
A549 [19] = experiment: Cell cycle arrest in human A549 cells assessed as downregulation of Cdc2 expression level after 24 hrs by Western blot analysis; format: functional, cell-based
A549 [20] = experiment: Cell cycle arrest in human A549 cells assessed as accumulation at S phase at 0.3 uM after 24 hrs by propidium iodide/RNase A staining-based flow cytometric analysis (reference value: 11.36%); format: functional
A549 [21] = experiment: Cell cycle arrest in human A549 cells assessed as accumulation at G2/M phase at 0.1 uM after 24 hrs by propidium iodide/RNase A staining-based flow cytometric analysis (reference value: 17.62%); format: functional
A549 [22] = experiment: Cell cycle arrest in human A549 cells assessed as accumulation at G1 phase at 0.3 uM after 24 hrs by propidium iodide/RNase A staining-based flow cytometric analysis (reference value: 71.02%); format: functional
A549 [23] = experiment: Cell cycle arrest in human A549 cells assessed as downregulation of cdc25c expression level after 24 hrs by Western blot analysis; format: functional, cell-based
A549 [24] = experiment: Cell cycle arrest in human A549 cells assessed as accumulation at G1 phase at 0.1 uM after 24 hrs by propidium iodide/RNase A staining-based flow cytometric analysis (reference value: 71.02%); format: functional
A549 [25] = experiment: Induction of apoptosis in human A549 cells assessed as upregulation of cleaved caspase-3 level up to 0.5 uM after 24 hrs by Western blot analysis; format: functional, cell-based
Tubulin (Bos taurus) [26] = biological target: T2, Tubulin (Bos taurus) (UniProt Q6B856+Q862L2+Q862F3); experiment: Inhibition of [3H]colchicine binding to bovine brain tubulin at 5 uM
A549 [27] = experiment: Induction of apoptosis in human A549 cells assessed as viable cells at 0.3 uM after 24 hrs by Annexin V-FITC/propidium iodide staining-based flow cytometric analysis (reference value: 82.8%); format: functional; details: A549, 24 h, read-out: Activity
A549 [28] = experiment: Induction of apoptosis in human A549 cells assessed as early apoptotic cells at 0.3 uM after 24 hrs by Annexin V-FITC/propidium iodide staining-based flow cytometric analysis (reference value: 2.81%); format: functional
A549 [29] = experiment: Induction of apoptosis in human A549 cells assessed as necrotic cells at 0.5 uM after 24 hrs by Annexin V-FITC/propidium iodide staining-based flow cytometric analysis (reference value: 10.8%); format: functional
A549 [30] = experiment: Induction of apoptosis in human A549 cells assessed as viable cells at 0.1 uM after 24 hrs by Annexin V-FITC/propidium iodide staining-based flow cytometric analysis (reference value: 82.8%); format: functional; details: A549, 24 h, read-out: Activity
Tubulin (Bos taurus) [31] = biological target: T2, Tubulin (Bos taurus); experiment: Inhibition of vinblastine binding to bovine brain tubulin at 5 uM
A549 [32] = experiment: Cell cycle arrest in human A549 cells assessed as upregulation of p21 expression level after 24 hrs by Western blot analysis; format: functional, cell-based
A549 [33] = experiment: Cell cycle arrest in human A549 cells assessed as accumulation at S phase at 0.1 uM after 24 hrs by propidium iodide/RNase A staining-based flow cytometric analysis (reference value: 11.36%); format: functional
A549 [34] = experiment: Induction of microtubule disruption in human A549 cells assessed as spindle microtubule disorganization accompanied by misaligned chromosomes from metaphase plate at 0.5 uM after 24 hrs by rhodamine and DAPI staining based immunofluorescence microscopic analysis; format: functional, cell-based
A549 [35] = experiment: Induction of apoptosis in human A549 cells assessed as downregulation of Bcl2 level up to 0.5 uM after 24 hrs by Western blot analysis; format: functional, cell-based
A549 [36] = experiment: Induction of apoptosis in human A549 cells assessed as late apoptotic cells at 0.1 uM after 24 hrs by Annexin V-FITC/propidium iodide staining-based flow cytometric analysis (reference value: 3.55%); format: functional
A549 [37] = experiment: Induction of apoptosis in human A549 cells assessed as late apoptotic cells at 0.3 uM after 24 hrs by Annexin V-FITC/propidium iodide staining-based flow cytometric analysis (reference value: 3.55%); format: functional
A549 [38] = experiment: Induction of apoptosis in human A549 cells assessed as late apoptotic cells at 0.5 uM after 24 hrs by Annexin V-FITC/propidium iodide staining-based flow cytometric analysis (reference value: 3.55%); format: functional
A549 [39] = experiment: Induction of apoptosis in human A549 cells assessed as necrotic cells at 0.3 uM after 24 hrs by Annexin V-FITC/propidium iodide staining-based flow cytometric analysis (reference value: 10.8%); format: functional

COc1ccc(/C=C\c2cc(OC)c(OC)c(OC)c2)cc1O [COMBRETASTATIN A4]
Activity (Rattus norvegicus): Active
CC50 at 24 h [1]: 162000 nM
IC50 (HeLa): 240 nM
IC50 (MCF7): 180 nM
Activity [2]: Toxic
IC50 (A549 [3]): 160 nM
CC50 at 24 h [4]: 178000 nM
IC50 (HepG2): 330 nM

Cc1ccc(C)c(S(=O)(=O)n2c(-c3cn(-c4ccccc4)nc3-c3ccc(C(F)(F)F)cc3)nc3ccccc32)c1
Activity (A549 [5]): 40.26%
Activity (Tubulin (Homo sapiens) [6]): Active
viability at 0.5 µM (A549 [7]): 62.9%
Activity (Rattus norvegicus): Active
Activity (A549 [8]): 13.4%
Activity (A549 [9]): Active
Activity (A549 [10]): 28.13%
Activity (A549 [11]): 10.1%
CC50 at 24 h [1]: 223000 nM
Activity (A549 [12]): 47.63%
IC50 (HeLa): 210 nM
Activity (A549 [13]): Dose-dependent effect
Activity (A549 [14]): 12.11%
Activity (A549 [15]): Active
Activity (A549 [16]): 3.08%
Activity (A549 [17]): Dose-dependent effect
IC50 (MCF7): 170 nM
Activity [2]: Non-Toxic
Activity (Tubulin (Homo sapiens) [18]): Active
Activity (A549 [19]): Dose-dependent effect
Activity (A549 [20]): 18.56%
Activity (A549 [21]): 22.63%
IC50 (A549 [3]): 150 nM
CC50 at 24 h [4]: 132000 nM
Activity (A549 [22]): 53.31%
Activity (A549 [23]): Dose-dependent effect
Activity (A549 [24]): 62.95%
Activity (A549 [25]): Active
inhibition (Tubulin (Bos taurus) [26]): 91%
IC50 (HepG2): 330 nM
viability at 0.3 µM (A549 [27]): 71%
Activity (A549 [28]): 6.69%
Activity (A549 [29]): 18.2%
viability at 0.1 µM (A549 [30]): 78.6%
inhibition (Tubulin (Bos taurus) [31]): 0.06%
Activity (A549 [32]): Dose-dependent effect
Activity (A549 [33]): 14.42%
Activity (A549 [34]): Active
Activity (A549 [35]): Active
Activity (A549 [36]): 4.9%
Activity (A549 [37]): 5.95%
Activity (A549 [38]): 8.74%
Activity (A549 [39]): 16.3%

Cc1ccc(-c2nn(-c3ccccc3)cc2-c2nc3ccccc3n2S(=O)(=O)c2ccccc2)cc1
CC50 at 24 h [1]: 138000 nM
IC50 (HeLa): 820 nM
IC50 (MCF7): 830 nM
IC50 (A549 [3]): 760 nM
CC50 at 24 h [4]: 189000 nM
inhibition (Tubulin (Bos taurus) [26]): 74%
IC50 (HepG2): 960 nM
inhibition (Tubulin (Bos taurus) [31]): 0.21%

Cc1ccc(C)c(S(=O)(=O)n2c(-c3cn(-c4ccccc4)nc3-c3ccc(F)cc3)nc3ccccc32)c1
CC50 at 24 h [1]: 54200 nM
IC50 (HeLa): 320 nM
IC50 (MCF7): 430 nM
IC50 (A549 [3]): 200 nM
CC50 at 24 h [4]: 122000 nM
inhibition (Tubulin (Bos taurus) [26]): 88%
IC50 (HepG2): 410 nM
inhibition (Tubulin (Bos taurus) [31]): 0.62%
